Data: patent US5766896A, “Method of producing iodine by use of a copper containing oxidase enzyme” (Novo Nordisk Biotech Inc., priority 1994, dated 1998)
Read-outs that look alike come from different tables or passages of the source.

Tests used:
[1] = molecular target: T1, recombinant Myceliophthora thermophila laccase (r-MtL) (Thermothelomyces thermophilus, UniProt G2QG31); assay: r-MtL-catalyzed ABTS oxidation; type: biochemical
T1 sequence (G2QG31 48-602): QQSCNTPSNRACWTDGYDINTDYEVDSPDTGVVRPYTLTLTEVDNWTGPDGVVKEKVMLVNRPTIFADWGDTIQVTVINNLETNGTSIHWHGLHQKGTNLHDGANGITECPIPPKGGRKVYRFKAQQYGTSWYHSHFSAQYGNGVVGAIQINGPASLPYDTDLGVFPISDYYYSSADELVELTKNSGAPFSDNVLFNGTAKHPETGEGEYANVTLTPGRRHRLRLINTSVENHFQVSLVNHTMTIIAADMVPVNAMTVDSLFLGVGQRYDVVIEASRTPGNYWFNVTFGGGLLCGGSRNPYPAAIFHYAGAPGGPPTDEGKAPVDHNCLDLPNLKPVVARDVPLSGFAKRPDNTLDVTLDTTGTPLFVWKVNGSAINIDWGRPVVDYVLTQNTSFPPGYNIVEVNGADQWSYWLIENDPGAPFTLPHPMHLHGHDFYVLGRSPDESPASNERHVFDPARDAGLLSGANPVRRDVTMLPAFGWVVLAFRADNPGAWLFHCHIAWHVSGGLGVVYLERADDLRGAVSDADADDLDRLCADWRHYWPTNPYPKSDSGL
Description: (§1) Enzymatic assays for determining oxidation of I^- are conducted in B & R buffer containing from 1-20 nM MtL (subunit concentration) and 10 to 200 mM Nal at 20° C. for 5-10 minutes. The extinction coefficient of 26 mM^-1 cm^-1 is used to calculate rate. Oxidation of I^- is spectrally monitored at 340 or 353 nm and the spectrum of the oxidation product is found identical to that of I3 -(Hosoya, Biochem. (Tokyo) 53: 381, 1963). Kinetic parameters are extracted by a non-linear regression fitting (Prism, GraphPad) of rate and concentration data to the equation of rate=Vmax *[substrate]/Km +[substrate].

tyrosinase (mushroom) [2] = conditions: pH 2.7
Source text: Chemicals used as buffers and substrates are commercial products of at least reagent grade. Ascorbate oxidase (Cucurbita species), ceruloplasmin (porcine plasma), bilirubin oxidase (Myrothecium verrucaria) and tyrosinase (mushroom) are purchased from Sigma and used as received. The contents of the enzymes in lyophilized powder or solution are confirmed by uv-visible absorption and published extinction coefficients. The stated activity of ascorbate oxidase is confirmed with ascorbic acid.
The extinction coefficient of 36 mM^-1 cm^-1 is used to calculate the rate. Spectroscopic assays are conducted on either a spectrophotometer (Shimadzu UV160) or a microplate reader (Molecular Devices). Britton & Robinson (B & R) buffers are prepared according to a standard protocol (Quelle, Biochemisches Taschenbuch, H. M. Raven, II. Teil, S.93 u. 102, 1964).

[3] = molecular target: T2, bilirubin oxidase (Myrothecium verrucaria) (Albifimbria verrucaria, UniProt Q12737); assay: bilirubin oxidase-catalyzed I^- oxidation; type: biochemical; conditions: optimal pH of 4.1
T2 construct: purchased Sigma
T2 sequence (Q12737 39-572): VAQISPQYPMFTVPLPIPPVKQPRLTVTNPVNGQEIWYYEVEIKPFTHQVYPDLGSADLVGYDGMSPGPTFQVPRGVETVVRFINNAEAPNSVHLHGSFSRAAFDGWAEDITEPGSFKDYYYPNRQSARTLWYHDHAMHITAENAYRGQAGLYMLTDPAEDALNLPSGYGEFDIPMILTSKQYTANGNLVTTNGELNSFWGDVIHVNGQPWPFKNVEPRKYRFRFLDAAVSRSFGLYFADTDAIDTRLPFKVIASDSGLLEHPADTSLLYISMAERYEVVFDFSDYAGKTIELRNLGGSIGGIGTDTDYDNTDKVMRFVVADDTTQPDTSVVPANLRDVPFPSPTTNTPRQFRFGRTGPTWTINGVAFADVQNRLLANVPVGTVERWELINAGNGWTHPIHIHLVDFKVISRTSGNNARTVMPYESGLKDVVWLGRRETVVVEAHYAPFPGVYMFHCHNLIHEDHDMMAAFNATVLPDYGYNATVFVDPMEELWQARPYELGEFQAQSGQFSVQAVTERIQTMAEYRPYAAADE
Description: as §1
(§2) Ascorbate oxidase, ceruloplasmin, bilirubin oxidase, and tyrosinase at concentrations up to μM level are also tested under similar conditions for I^- oxidation catalysis.

[4] = molecular target: T1, recombinant Myceliophthora thermophila laccase (r-MtL); assay: r-MtL-catalyzed I^- oxidation; type: biochemical; conditions: pH 3.4
Description: as §1

tyrosinase (mushroom) [5] = assay: tyrosinase-catalyzed I^- oxidation; type: biochemical; conditions: optimal pH of 2.7
Description: as §1, §2

Myceliophthora laccase = Myceliophthora laccase (Thermothelomyces thermophilus, UniProt G2QG31); assay: chloride inhibition of Myceliophthora laccase; type: biochemical; conditions: read-out: inhibition constant (chloride)

CCn1c(=NN=c2sc3cc(S(=O)(=O)O)ccc3n2CC)sc2cc(S(=O)(=O)O)ccc21 [ABTS, 2,2'-azinobis-(3-ethylbenzthiazoline-6-sulfonic acid)]
Km of ABTS, fold smaller in comparison with I^- [1]: ~ 10^3 fold
Vmax of ABTS, fold larger in comparison with I^- [1]: ~ 10^3 fold
Vmax (ABTS oxidation) (tyrosinase (mushroom) [2]): 3.1±0.1 turnover per minute
Km (tyrosinase (mushroom) [2]; read-out: Km (ABTS)): 0.18 ± 0.01 mM

I [I^-, iodide]
Vmax (I^- oxidation) [3]: 1.7±0.1 turnover per minute
Vmax (I^- oxidation) [4]: 2.7±0.2 turnover per minute
Km (tyrosinase (mushroom) [5]): ~100 mM
Vmax (I^- oxidation) (tyrosinase (mushroom) [5]): ca. 0.1 turnover per minute

Cl [chloride]
Ki (Myceliophthora laccase): ~70 mM
